From patent US9290515B2, “Cephem derivative having catechol group” (SHIONOGI & CO., LTD., priority 2011, dated 2016)
Converted amounts (≈) assume the structure as drawn.

Assays:
Format in all cases: cell-based
[1] = test system: P. aeruginosa SR27060(metallo); experiment: MIC by broth microdilution (CLSI), P. aeruginosa SR27060; conditions: Pseudomonas aeruginosa; P. aeruginosa SR27060, IMP-1, MBL producing carbapenem-resistant strain; 10000 cfu/well; cation-adjusted Mueller Hinton broth with 20 μM human apo-transferrin; read-out: minimum growth inhibition concentration (MIC)
Protocol: (§1) Measurement of a minimum growth inhibition concentration (MIC: μg/mL) was performed according to CLSI (Clinical and Laboratory Standards Institute) method, by broth microdilution method, using an inoculation microbe amount of 10000 cfu/well and cation-adjusted Mueller Hinton broth containing human-derived 20 μM apo-transferrin as a test medium.

[2] = test system: S. maltophilia SR21970(L-1); experiment: MIC by broth microdilution (CLSI), S. maltophilia SR21970; conditions: Stenotrophomonas maltophilia; S. maltophilia SR21970, L-1, MBL producing carbapenem-resistant strain; 10000 cfu/well; cation-adjusted Mueller Hinton broth with 20 μM human apo-transferrin; read-out: minimum growth inhibition concentration (MIC)
Protocol: as §1

[3] = test system: K. pneumoniae ATCC 700603_SHV18; experiment: MIC by broth microdilution (CLSI), K. pneumoniae ATCC 700603; conditions: Klebsiella pneumoniae, ATCC700603; K. pneumoniae ATCC 700603, SHV-18, ESBL producing strain; 10000 cfu/well; cation-adjusted Mueller Hinton broth with 20 μM human apo-transferrin; read-out: minimum growth inhibition concentration (MIC)
Protocol: as §1

[4] = test system: E. coli ATCC BAA-196_TEM-10; experiment: MIC by broth microdilution (CLSI), E. coli ATCC BAA-196; conditions: Escherichia coli, ATCCBAA196; E. coli ATCC BAA-196, TEM-10, ESBL producing strain; 10000 cfu/well; cation-adjusted Mueller Hinton broth with 20 μM human apo-transferrin; read-out: minimum growth inhibition concentration (MIC)
Protocol: as §1

P. aeruginosa SR24 = experiment: MIC by broth microdilution (CLSI), P. aeruginosa SR24; conditions: Pseudomonas aeruginosa; P. aeruginosa SR24, Ceftazidime-sensitive strain; 10000 cfu/well; cation-adjusted Mueller Hinton broth with 20 μM human apo-transferrin; read-out: minimum growth inhibition concentration (MIC)
Protocol: as §1

A. baumannii SR24396 = experiment: MIC by broth microdilution (CLSI), A. baumannii SR24396; conditions: Acinetobacter baumannii, 10000 cfu/well, cation-adjusted Mueller Hinton broth with 20 μM human apo-transferrin, read-out: minimum growth inhibition concentration (MIC)
Protocol: as §1

[5] = test system: P. aeruginosa SR27001(MDRP, IMP-1+); experiment: MIC by broth microdilution (CLSI), P. aeruginosa SR27001; conditions: Pseudomonas aeruginosa; P. aeruginosa SR27001, MDRP, IMP-1, MBL producing carbapenem-resistant strain; 10000 cfu/well; cation-adjusted Mueller Hinton broth with 20 μM human apo-transferrin; read-out: minimum growth inhibition concentration (MIC)
Protocol: as §1

Row | Structure (SMILES) | MIC [1] | MIC [2] | MIC [3] | MIC [4] | MIC (P. aeruginosa SR24) | MIC (A. baumannii SR24396) | MIC [5]
1 | C[N+]1(CC2=C(C(=O)[O-])N3C(=O)[C@@H](NC(=O)/C(=N\O[C@H](C(=O)[O-])c4ccc(O)c(O)c4)c4csc(N)n4)[C@H]3SC2)CCCC1.[Na+] [Comparative Example compound 1, reference compound] | > 32 µg/mL | > 32 µg/mL | 16 µg/mL | 16 µg/mL | 8 µg/mL | 4 µg/mL | > 32 µg/mL
2 | Nc1nc(/C(=N/O[C@H](C(=O)[O-])c2ccc(O)c(O)c2)C(=O)N[C@@H]2C(=O)N3C(C(=O)[O-])=C(C[N+]45CCC(CC4)CC5)CS[C@H]23)cs1.[Na+] [Comparative Example compound 2, reference compound] | > 32 µg/mL | > 32 µg/mL | 16 µg/mL | 32 µg/mL | 8 µg/mL | 16 µg/mL | > 32 µg/mL
3 | C[N+]1(CC2=C(C(=O)[O-])N3C(=O)[C@@H](NC(=O)/C(=N\OC(CNC(=O)c4ccc(O)c(O)c4Cl)C(=O)O)c4csc(N)n4)[C@H]3SC2)[C@@H]2CC[C@H]1C[C@@H](N)C2 (stereo partly shown) [Compound I-6] | 0.25 µg/mL (≈ 0.321 µM) | – | 0.125 µg/mL (≈ 0.16 µM) | 0.25 µg/mL (≈ 0.321 µM) | 0.125 µg/mL (≈ 0.16 µM) | ≤ 0.031 µg/mL | 0.25 µg/mL (≈ 0.321 µM)
4 | NCC[N+]1(CC2=C(C(=O)[O-])N3C(=O)[C@@H](NC(=O)/C(=N\OC(CNC(=O)c4ccc(O)c(O)c4Cl)C(=O)O)c4csc(N)n4)[C@H]3SC2)CCCC1 (stereo partly shown) [Compound I-7] | 0.125 µg/mL (≈ 0.166 µM) | – | 0.063 µg/mL (≈ 0.0836 µM) | 0.125 µg/mL (≈ 0.166 µM) | 0.125 µg/mL (≈ 0.166 µM) | ≤ 0.031 µg/mL | 0.5 µg/mL (≈ 0.664 µM)
5 | C[N+]1(CC2=C(C(=O)[O-])N3C(=O)[C@@H](NC(=O)/C(=N\OC(CNC(=O)c4ccc(O)c(O)c4Cl)C(=O)[O-])c4csc(N)n4)[C@H]3SC2)CCCC1.[Na+] (stereo partly shown) [Compound I-8] | 4 µg/mL | – | 1 µg/mL | 0.5 µg/mL | 0.125 µg/mL | 0.063 µg/mL | 8 µg/mL
6 | Nc1nc(/C(=N/OC(CNC(=O)c2ccc(O)c(O)c2Cl)C(=O)[O-])C(=O)N[C@@H]2C(=O)N3C(C(=O)[O-])=C(C[N+]45CCC(CC4)CC5)CS[C@H]23)cs1.[Na+] (stereo partly shown) [Compound I-9] | 1 µg/mL | 1 µg/mL | 0.125 µg/mL | 0.5 µg/mL | 0.125 µg/mL | 0.063 µg/mL | 2 µg/mL
7 | Nc1nc(/C(=N/OC(CNC(=O)c2ccc(O)c(O)c2Cl)C(=O)[O-])C(=O)N[C@@H]2C(=O)N3C(C(=O)[O-])=C(C[n+]4cccc5c4CCC5)CS[C@H]23)cs1.[Na+] (stereo partly shown) [Compound I-13] | 2 µg/mL | > 32 µg/mL | 0.5 µg/mL | 1 µg/mL | 0.125 µg/mL | 0.063 µg/mL | 2 µg/mL
8 | Nc1nc(/C(=N/OC[C@H](NC(=O)c2ccc(O)c(O)c2Cl)C(=O)[O-])C(=O)N[C@@H]2C(=O)N3C(C(=O)[O-])=C(C[N+]45CCC(CC4)CC5)CS[C@H]23)cs1.[Na+] [Compound I-23] | 0.5 µg/mL | 8 µg/mL | 8 µg/mL | 1 µg/mL | 0.125 µg/mL | 0.25 µg/mL | –
